Experimental data: PubChem BioAssay AID330 (DTP/NCI, 2004)
Several values for one entry are separate records, joined by “and”; a condition that tells them apart may be missing. Identical values can stand only once. Toxic doses and inconclusive results are not listed. Square brackets hold non-standard residues; d marks the D form. Peptide text beside a SMILES is read from it. ξ: configuration not given here. Ac5c = NC1(C(=O)O)CCCC1; ξS = NC(CO)C(=O)O

Test system: P388 leukemia ip, CD2F1 mice, survival T/C
Assay: NCI In Vivo Anticancer Drug Screen. Data for tumor model P388 Leukemia (intraperitoneal) in CD2F1 (CDF1) mice
Settings: endpoint: median survival time, higher = longer survival
Procedure, shortened: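 Mice carrying the transplanted tumor received test compound or vehicle. Survival was recorded in each group, and the value is the treated-group measurement divided by that of the vehicle-treated control group.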

[1] = dose: 50.0 mg/kg/injection, schedule: Q01DX005 (ip), vehicle: Klucel (hydroxypropylcellulose) (HPC)
[2] = dose: 100.0 mg/kg/injection, schedule: Q01DX005 (ip), vehicle: Klucel (hydroxypropylcellulose) (HPC)
[3] = dose: 60.0 mg/kg/injection, schedule: Q01DX005 (ip), vehicle: saline with Tween-80
[4] = dose: 120.0 mg/kg/injection, schedule: Q01DX005 (ip), vehicle: saline with Tween-80
[5] = dose: 50.0 mg/kg/injection, schedule: Q01DX005 (ip), vehicle: saline with Tween-80
[6] = dose: 100.0 mg/kg/injection, schedule: Q01DX005 (ip), vehicle: saline with Tween-80
[7] = dose: 200.0 mg/kg/injection, schedule: Q01DX005 (ip), vehicle: saline with Tween-80
[8] = dose: 100.0 mg/kg/injection, schedule: Q04DX003 (ip), vehicle: saline with Tween-80
[9] = dose: 200.0 mg/kg/injection, schedule: Q04DX003 (ip), vehicle: saline with Tween-80
[10] = dose: 400.0 mg/kg/injection, schedule: Q04DX003 (ip), vehicle: saline with Tween-80
[11] = dose: 50.0 mg/kg/injection, schedule: Q01DX009 (ip), vehicle: saline with Tween-80
[12] = dose: 100.0 mg/kg/injection, schedule: Q01DX009 (ip), vehicle: saline with Tween-80
[13] = dose: 200.0 mg/kg/injection, schedule: Q01DX005 (ip), vehicle: Klucel (hydroxypropylcellulose) (HPC)
[14] = dose: 240.0 mg/kg/injection, schedule: Q01DX005 (ip), vehicle: saline with Tween-80
[15] = dose: 100.0 mg/kg/injection, schedule: Q04DX002 (ip), vehicle: saline with Tween-80
[16] = dose: 200.0 mg/kg/injection, schedule: Q04DX002 (ip), vehicle: saline with Tween-80
[17] = dose: 200.0 mg/kg/injection, schedule: Q01DX009 (ip), vehicle: saline with Tween-80
[18] = dose: 25.0 mg/kg/injection, schedule: Q01DX009 (ip), vehicle: saline
[19] = dose: 50.0 mg/kg/injection, schedule: Q01DX009 (ip), vehicle: saline

In the case of `CC(C)(CNC(=O)C12CC3CC(CC(C3)C1)C2)NC(=O)C12CC3CC(CC(C3)C1)C2`, the T/C (dose: 12.5 mg/kg/injection, schedule: Q01DX005 (ip), vehicle: Klucel (hydroxypropylcellulose) (HPC)) was 98 % of control, the T/C (dose: 25.0 mg/kg/injection, schedule: Q01DX005 (ip), vehicle: Klucel (hydroxypropylcellulose) (HPC)) was 107 % of control and the T/C [1] was 93 % of control. The T/C [2] was 88 % of control.

With `CN1C(=O)C2(CC2C(=O)c2ccc(Cl)cc2)c2ccccc21` (stereo not given) the T/C (dose: 2.5 mg/kg/injection, schedule: Q04DX002 (ip), vehicle: saline with Tween-80) was 108 % of control, the T/C (dose: 5.0 mg/kg/injection, schedule: Q04DX002 (ip), vehicle: saline with Tween-80) was 100 % of control and the T/C (dose: 10.0 mg/kg/injection, schedule: Q04DX002 (ip), vehicle: saline with Tween-80) was 99 % of control.

`O=C(NC1CCC1)OCc1c(COC(=O)NC2CCC2)c(-c2ccc(Cl)c(Cl)c2)n2c1CCC2` was tested, and the T/C (dose: 3.13 mg/kg/injection, schedule: Q01DX009 (ip), vehicle: distilled water + Tween-80) was 117 % of control, the T/C (dose: 12.5 mg/kg/injection, schedule: Q01DX009 (ip), vehicle: distilled water + Tween-80) was 155 % of control and the T/C (dose: 25.0 mg/kg/injection, schedule: Q01DX009 (ip), vehicle: distilled water + Tween-80) was 173 % of control and 194 % of control.

With `Nc1[nH]c(=O)ncc1-c1ccc(Cl)cc1` the T/C [3] was 97 % of control and the T/C [4] was 96 % of control.

In the case of `CN/N=C\c1cc2ccccc2c2ccccc12`, the T/C [5] was 96 % of control, the T/C [6] was 91 % of control and the T/C [7] was 88 % of control.

For `O=C(O)c1c[nH]c2cc(OCCOc3ccc(Br)cc3)ccc2c1=O`, the T/C [8] was 87 % of control, the T/C [9] was 93 % of control and the T/C [10] was 91 % of control.

In the case of `O=C(O)CCC(=O)c1ccc2ccc3cccc4ccc1c2c34`, the T/C [1] was 102 % of control, the T/C [11] was 101 % of control and the T/C [2] was 103 % of control. The T/C [12] was 115 % of control and the T/C [13] was 99 % of control.

In the case of `O=C(NCN1CCCCC1)c1ccccc1`, the T/C (dose: 25.0 mg/kg/injection, schedule: Q01DX005 (ip), vehicle: saline with Tween-80) was 93 % of control and 95 % of control, the T/C [5] was 98 % of control and 101 % of control and 105 % of control and the T/C [6] was 102 % of control and 104 % of control. For the same molecule, the T/C [7] was 102 % of control and 113 % of control.

In the case of `CCCCC(CC)COC(OCC(CC)CCCC)C(OCC(CC)CCCC)OCC(CC)CCCC` (stereo not given), the T/C [8] was 100 % of control, the T/C [9] was 100 % of control and the T/C [10] was 100 % of control.

With `O=C(Nc1ccccc1)N1c2ccccc2SC1c1ccco1` (stereo not given) the T/C [5] was 101 % of control, the T/C [6] was 100 % of control and the T/C [7] was 92 % of control.

For `CC1=CCC2C(=O)N(c3cc(C)on3)C(=O)C2C1` (stereo not given), the T/C [3] was 97 % of control, the T/C [4] was 100 % of control and the T/C [14] was 90 % of control.

In the case of `CC(=O)n1oc2ccc(Br)cc2c1=O`, the T/C [1] was 100 % of control, the T/C [2] was 95 % of control and the T/C [13] was 100 % of control.

In the case of `O=C(Nc1ccc(C2=NCCN2)cc1)c1cc2cc(C3=NCCN3)ccc2o1`, the T/C (dose: 12.5 mg/kg/injection, schedule: Q04DX003 (ip), vehicle: suspension in saline) was 100 % of control, the T/C (dose: 25.0 mg/kg/injection, schedule: Q04DX003 (ip), vehicle: suspension in saline) was 102 % of control and the T/C (dose: 50.0 mg/kg/injection, schedule: Q04DX003 (ip), vehicle: suspension in saline) was 100 % of control.

`Cc1s\c(=N/N=N/N=c2\sc(C)c(C)n2Cc2ccccc2)n(Cc2ccccc2)c1C` was tested, and the T/C [3] was 103 % of control, the T/C [4] was 97 % of control and the T/C [14] was 103 % of control.

In the case of `CCCCC1SCC(=O)N1c1nncs1` (stereo not given), the T/C [3] was 104 % of control, the T/C [4] was 98 % of control and the T/C [14] was 103 % of control.

With `Cc1nn(CC(=O)O)c(=O)c(C#N)c1-c1ccccc1` the T/C (dose: 62.5 mg/kg/injection, schedule: Q04DX002 (ip), vehicle: other) was 116 % of control, the T/C (dose: 125.0 mg/kg/injection, schedule: Q04DX002 (ip), vehicle: other) was 102 % of control and the T/C (dose: 250.0 mg/kg/injection, schedule: Q04DX002 (ip), vehicle: other) was 115 % of control. The T/C (dose: 500.0 mg/kg/injection, schedule: Q04DX002 (ip), vehicle: other) was 109 % of control.

In the case of `Clc1ncnc2n[nH]c(Br)c12`, the T/C (dose: 100.0 mg/kg/injection, schedule: Q04DX002 (ip), vehicle: water) was 108 % of control, the T/C (dose: 200.0 mg/kg/injection, schedule: Q04DX002 (ip), vehicle: water) was 116 % of control and the T/C (dose: 400.0 mg/kg/injection, schedule: Q04DX002 (ip), vehicle: water) was 107 % of control.

With `NC(CO)C(=O)NC1(C(=O)O)CCCC1` (stereo not given) (H-[ξS]-[Ac5c]-OH) the T/C [8] was 95 % of control, the T/C [9] was 100 % of control and the T/C [10] was 120 % of control.

With `CN1C(=O)/C(=C2\SC(=O)N(CN3CCCCC3)C2=O)c2cc(Br)ccc21` the T/C (dose: 60.0 mg/kg/injection, schedule: Q01DX005 (ip), vehicle: Klucel (hydroxypropylcellulose) (HPC)) was 90 % of control, the T/C (dose: 120.0 mg/kg/injection, schedule: Q01DX005 (ip), vehicle: Klucel (hydroxypropylcellulose) (HPC)) was 90 % of control and the T/C (dose: 240.0 mg/kg/injection, schedule: Q01DX005 (ip), vehicle: Klucel (hydroxypropylcellulose) (HPC)) was 95 % of control.

In the case of `O=C1OC(c2ccccc2)=N/C1=C\c1ccc(/C=C2/N=C(c3ccccc3)OC2=O)cc1`, the T/C [15] was 100 % of control, the T/C [16] was 104 % of control and the T/C (dose: 400.0 mg/kg/injection, schedule: Q04DX002 (ip), vehicle: saline with Tween-80) was 95 % of control.

`COC(=O)CCc1ccc(NP(=O)(N2CC2)N2CC2)cc1` was tested, and the T/C (dose: 12.5 mg/kg/injection, schedule: Q04DX003 (ip), vehicle: saline with Tween-80) was 100 % of control, the T/C (dose: 25.0 mg/kg/injection, schedule: Q04DX003 (ip), vehicle: saline with Tween-80) was 115 % of control and the T/C [12] was 150 % of control. For the same molecule, the T/C (dose: 132.0 mg/kg/injection, schedule: Q04DX003 (ip), vehicle: saline with Tween-80) was 150 % of control, the T/C [17] was 90 % of control and the T/C [9] was 156 % of control. The T/C (dose: 300.0 mg/kg/injection, schedule: Q04DX003 (ip), vehicle: saline with Tween-80) was 90 % of control.

With `C=C(C)C(=O)N1c2ccc(OC)cc2CC1C(=O)OCC` (stereo not given) the T/C (dose: 60.0 mg/kg/injection, schedule: Q01DX005 (ip), vehicle: saline + Tween-80 + alcohol) was 102 % of control, the T/C (dose: 120.0 mg/kg/injection, schedule: Q01DX005 (ip), vehicle: saline + Tween-80 + alcohol) was 100 % of control and the T/C (dose: 240.0 mg/kg/injection, schedule: Q01DX005 (ip), vehicle: saline + Tween-80 + alcohol) was 97 % of control.

In the case of `C[N+]1=P(C)(C)N=P(C)(C)[N+](C)=P(C)(C)N=P1(C)C`, the T/C (dose: 12.5 mg/kg/injection, schedule: Q01DX009 (ip), vehicle: saline) was 95 % of control, the T/C [18] was 95 % of control and the T/C [19] was 116 % of control and 95 % of control.

`COc1cc2cccc(OC)c(=O)c2c(OC)c1OC` was tested, and the T/C [1] was 92 % of control, the T/C [2] was 100 % of control and the T/C [13] was 90 % of control.

`CSc1ccc(NC(=O)ON2CCCCC2)cc1` was tested, and the T/C [11] was 99 % of control, the T/C [12] was 108 % of control and the T/C [17] was 101 % of control.

In the case of `CC(C)C(Sc1nc(N)nc2nc[nH]c12)C(=O)O` (stereo not given), the T/C [12] was 95 % of control, the T/C [8] was 95 % of control and the T/C [17] was 100 % of control. For the same molecule, the T/C [9] was 100 % of control, the T/C (dose: 400.0 mg/kg/injection, schedule: Q01DX009 (ip), vehicle: saline with Tween-80) was 104 % of control and the T/C [10] was 95 % of control.

For `ClC1=CCCCC1`, the T/C [18] was 100 % of control, the T/C [19] was 100 % of control and the T/C (dose: 100.0 mg/kg/injection, schedule: Q01DX009 (ip), vehicle: saline) was 110 % of control.

`ClCSc1nc2ccccc2o1` was tested, and the T/C (dose: 50.0 mg/kg/injection, schedule: Q04DX002 (ip), vehicle: saline with Tween-80) was 102 % of control, the T/C [15] was 102 % of control and the T/C [16] was 107 % of control.

With `CCCCCCCCCCCCCCCCCCSC1=CC(=O)C(Cl)=C(Cl)C1=O` the T/C (dose: 10.0 mg/kg/injection, schedule: Q01DX009 (ip), vehicle: Klucel (hydroxypropylcellulose) (HPC)) was 97 % of control and the T/C (dose: 20.0 mg/kg/injection, schedule: Q01DX009 (ip), vehicle: Klucel (hydroxypropylcellulose) (HPC)) was 90 % of control.

`Oc1ccc2c(ccc3[nH]cnc32)c1` was tested, and the T/C (dose: 50.0 mg/kg/injection, schedule: Q01DX005 (ip), vehicle: saline) was 98 % of control, the T/C (dose: 100.0 mg/kg/injection, schedule: Q01DX005 (ip), vehicle: saline) was 101 % of control and the T/C (dose: 200.0 mg/kg/injection, schedule: Q01DX005 (ip), vehicle: saline) was 111 % of control.
